Laboratory results as given in patent US9624269B2, “Peptide inhibitors of BACE1” (GENENTECH, INC., priority 2011, dated 2017).

Assays:
Assay in all cases: Biotinylated BACE020 peptide binding ELISA
[1] = molecular target: T1, human BACE1 ECD mutant G72A (11) (Homo sapiens, UniProt P56817, G72A)
T1 construct: extracellular domain (ECD) (residues 22-457) and a C-terminal His8 tag; made in house; host or cells: Chinese hamster ovary cells (transient)
Text: (§1) Human BACE1 mutants were made in a pRK vector containing the BACE 1 signal peptide followed by its extracellular domain (ECD) (residues 22-457) and a C-terminal His8 tag (SEQ ID NO: 54). Mutations were made using the appropriate oligonucleotide using a QuikChange® II XL Site-Directed Mutagenesis kit (Agilent Technologies Stratagene Products, La Jolla, Calif.) and confirmed by DNA sequencing. Proteins were expressed transiently using Chinese hamster ovary cells growing in 1-liter fermenters and cultures were harvested after 2 weeks. Following centrifugation, mutant proteins from the medium were purified to homogeneity (>95% purity) by chromatography on Ni-NTA agarose (Qiagen, Valencia, Calif.). After washing with PBS containing 10 mM imidazole, proteins were eluted with PBS containing 200 mM imidazole and the eluate was pooled, concentrated using a Vivaspin 20 (Sartorius-stedim, Goettingen, Germany) and applied to a Superdex 200 10/300 GL column (GE Healthcare Bio-Sciences AB, Uppsala, Sweden) equilibrated in 20 mM HEPES pH 7.2, 150 mM NaCl. Protein peaks were collected, concentrated and protein concentration determined by A280.
(§2) Binding of biotinylated BACE020 to recombinant protein was determined by a 96-well plate assay. Maxisorp microtiter plates (Nalge Nunc International, Rochester, N.Y.) were coated overnight at 4° C. with 2 μg/ml BACE 1 mutant in 50 mM carbonate, pH 9.6. The coated wells were washed with buffer (PBS, 0.05% Polysorbate 20) and blocked with assay buffer (PBS, pH 7.4, 0.5% BSA, 0.05% Tween 20, 15 ppm Proclin) for 1 h at room temperature with gentle shaking. After blocking, various concentrations of C-terminal biotin tagged BACE020 peptide with a polyethylene glycol (PEG) spacer (Ac-[…]-(PEG)3-biotin (SEQ ID NO: 16); Ac-[…]-CONH—CH2—(CH2—CH2—O—)3—(CH2)3—NH-biotin (SEQ ID NO: 16)) diluted in assay buffer were added and plates were incubated for 1 h with gentle shaking at room temperature. After washing, the amount of peptide bound to the plate was detected by the addition of Streptavidin-Horseradish Peroxidase Conjugate (GE Healthcare, Piscataway, N.J.) followed by the addition of TMB/H2O2 substrate (KPL, Gaithersburg, Md.). The reaction was quenched with 1 M phosphoric acid and the A450 measured on a Molecular Devices SpectraMax Plus384 microplate reader. Concentrations to give half maximal effective concentration (EC50) were determined using a 4-parameter non-linear regression curve-fitting program with Kaleidagraph (Synergy Software, Reading, Pa.). […] Concentrations to give half maximal inhibition concentration (IC50) were determined using a 4-parameter non-linear regression curve-fitting program with Kaleidagraph.
(§3) The ability of biotinylated BACE020 to bind to BACE1 and mutants was determined using an ELISA assay. The fold decrease in binding affinity was determined as the relative EC50 values of EC50 (mut)/EC50 (WT), which are listed in Table 3.

[2] = molecular target: T2, human BACE1 ECD mutant R296A (235) (Homo sapiens, UniProt P56817, R296A)
T2 construct: its extracellular domain (ECD) (residues 22-457) and a C-terminal His8 tag; His8 (C); made in house; host or cells: Chinese hamster ovary cells (transient, secreted)
Text: as §1, §2, §3

[3] = molecular target: T3, human BACE1 ECD mutant R189A (128) (Homo sapiens, UniProt P56817, R189A)
T3 construct: extracellular domain (ECD) (residues 22-457) and a C-terminal His8 tag; made in house; host or cells: Chinese hamster ovary cells (transient)
Text: as §1, §2, §3

[4] = molecular target: T4, human BACE1 ECD mutant T390A (329) (Homo sapiens, UniProt P56817, T390A)
T4 construct: its extracellular domain (ECD) (residues 22-457) and a C-terminal His8 tag; His8 (C); made in house; host or cells: Chinese hamster ovary cells (transient, secreted)
Text: as §1, §2, §3

[5] = molecular target: T5, human BACE1 ECD mutant Y132A (71) (Homo sapiens, UniProt P56817, Y132A)
T5 construct: extracellular domain (ECD) (residues 22-457) and a C-terminal His8 tag; made in house; host or cells: Chinese hamster ovary cells (transient)
Text: as §1, §2, §3

[6] = molecular target: T6, human BACE1 ECD mutant D289A (228) (Homo sapiens, UniProt P56817, D289A)
T6 construct: extracellular domain (ECD) (residues 22-457) and a C-terminal His8 tag; made in house; host or cells: Chinese hamster ovary cells (transient)
Text: as §1, §2, §3

[7] = molecular target: T7, human BACE1 ECD mutant Q73A (12) (Homo sapiens, UniProt P56817, Q73A)
T7 construct: extracellular domain (ECD) (residues 22-457) and a C-terminal His8 tag; made in house; host or cells: Chinese hamster ovary cells (transient)
Text: as §1, §2, §3

[8] = molecular target: T8, human BACE1 ECD mutant N294A (233) (Homo sapiens, UniProt P56817, N294A)
T8 construct: its extracellular domain (ECD) (residues 22-457) and a C-terminal His8 tag; His8 (C); made in house; host or cells: Chinese hamster ovary cells (transient, secreted)
Text: as §1, §2, §3

[9] = molecular target: T9, human BACE1 ECD mutant T133A (72) (Homo sapiens, UniProt P56817, T133A)
T9 construct: extracellular domain (ECD) (residues 22-457) and a C-terminal His8 tag; made in house; host or cells: Chinese hamster ovary cells (transient)
Text: as §1, §2, §3

[10] = molecular target: T10, human BACE1 ECD mutant T293A (232) (Homo sapiens, UniProt P56817, T293A)
T10 construct: its extracellular domain (ECD) (residues 22-457) and a C-terminal His8 tag; His8 (C); made in house; host or cells: Chinese hamster ovary cells (transient, secreted)
Text: as §1, §2, §3

[11] = molecular target: T11, human BACE1 ECD mutant K168A (107) (Homo sapiens, UniProt P56817, K168A)
T11 construct: extracellular domain (ECD) (residues 22-457) and a C-terminal His8 tag; made in house; host or cells: Chinese hamster ovary cells (transient)
Text: as §1, §2, §3

[12] = molecular target: T12, human BACE1 ECD mutant Q134A (73) (Homo sapiens, UniProt P56817, Q134A)
T12 construct: extracellular domain (ECD) (residues 22-457) and a C-terminal His8 tag; made in house; host or cells: Chinese hamster ovary cells (transient)
Text: as §1, §2, §3

[13] = molecular target: T13, human BACE1 ECD mutant D93A (32) (Homo sapiens, UniProt P56817, D93A)
T13 construct: extracellular domain (ECD) (residues 22-457) and a C-terminal His8 tag; made in house; host or cells: Chinese hamster ovary cells (transient)
Text: as §1, §2, §3

[14] = molecular target: T14, human BACE1 ECD mutant F169A (108) (Homo sapiens, UniProt P56817, F169A)
T14 construct: extracellular domain (ECD) (residues 22-457) and a C-terminal His8 tag; made in house; host or cells: Chinese hamster ovary cells (transient)
Text: as §1, §2, §3

[15] = molecular target: T15, human BACE1 ECD mutant W176A (115) (Homo sapiens, UniProt P56817, W176A)
T15 construct: extracellular domain (ECD) (residues 22-457) and a C-terminal His8 tag; made in house; host or cells: Chinese hamster ovary cells (transient)
Text: as §1, §2, §3

[16] = molecular target: T16, human BACE1 ECD WT (Homo sapiens, UniProt P56817)
T16 construct: extracellular domain (ECD) (residues 22-457) and a C-terminal His8 tag; made in house; host or cells: Chinese hamster ovary cells (transient)
Text: as §1, §2, §3

[17] = molecular target: T17, human BACE1 ECD mutant L91A (30) (Homo sapiens, UniProt P56817, L91A)
T17 construct: extracellular domain (ECD) (residues 22-457) and a C-terminal His8 tag; made in house; host or cells: Chinese hamster ovary cells (transient)
Text: as §1, §2, §3

[18] = molecular target: T18, human BACE1 ECD mutant S96A (35) (Homo sapiens, UniProt P56817, S96A)
T18 construct: extracellular domain (ECD) (residues 22-457) and a C-terminal His8 tag; made in house; host or cells: Chinese hamster ovary cells (transient)
Text: as §1, §2, §3

[19] = molecular target: T19, human BACE1 ECD mutant K285A (224) (Homo sapiens, UniProt P56817, K285A)
T19 construct: extracellular domain (ECD) (residues 22-457) and a C-terminal His8 tag; made in house; host or cells: Chinese hamster ovary cells (transient)
Text: as §1, §2, §3

[20] = molecular target: T20, human BACE1 ECD mutant 1I79A (118) (Homo sapiens, UniProt P56817, I179A)
T20 construct: extracellular domain (ECD) (residues 22-457) and a C-terminal His8 tag; made in house; host or cells: Chinese hamster ovary cells (transient)
Text: as §1, §2, §3

[21] = molecular target: T21, human BACE1 ECD mutant G74A (13) (Homo sapiens, UniProt P56817, G74A)
T21 construct: extracellular domain (ECD) (residues 22-457) and a C-terminal His8 tag; made in house; host or cells: Chinese hamster ovary cells (transient)
Text: as §1, §2, §3

[22] = molecular target: T22, human BACE1 ECD mutant K382A (321) (Homo sapiens, UniProt P56817, K382A)
T22 construct: its extracellular domain (ECD) (residues 22-457) and a C-terminal His8 tag; His8 (C); made in house; host or cells: Chinese hamster ovary cells (transient, secreted)
Text: as §1, §2, §3

[23] = molecular target: T23, human BACE1 ECD mutant T292A (231) (Homo sapiens, UniProt P56817, T292A)
T23 construct: its extracellular domain (ECD) (residues 22-457) and a C-terminal His8 tag; His8 (C); made in house; host or cells: Chinese hamster ovary cells (transient, secreted)
Text: as §1, §2, §3

[24] = molecular target: T24, human BACE1 ECD mutant G291A (230) (Homo sapiens, UniProt P56817, G291A)
T24 construct: its extracellular domain (ECD) (residues 22-457) and a C-terminal His8 tag; His8 (C); made in house; host or cells: Chinese hamster ovary cells (transient, secreted)
Text: as §1, §2, §3

[25] = molecular target: T25, human BACE1 ECD mutant I171A (110) (Homo sapiens, UniProt P56817, I171A)
T25 construct: extracellular domain (ECD) (residues 22-457) and a C-terminal His8 tag; made in house; host or cells: Chinese hamster ovary cells (transient)
Text: as §1, §2, §3

T25 sequence (P56817 22-457 I171A): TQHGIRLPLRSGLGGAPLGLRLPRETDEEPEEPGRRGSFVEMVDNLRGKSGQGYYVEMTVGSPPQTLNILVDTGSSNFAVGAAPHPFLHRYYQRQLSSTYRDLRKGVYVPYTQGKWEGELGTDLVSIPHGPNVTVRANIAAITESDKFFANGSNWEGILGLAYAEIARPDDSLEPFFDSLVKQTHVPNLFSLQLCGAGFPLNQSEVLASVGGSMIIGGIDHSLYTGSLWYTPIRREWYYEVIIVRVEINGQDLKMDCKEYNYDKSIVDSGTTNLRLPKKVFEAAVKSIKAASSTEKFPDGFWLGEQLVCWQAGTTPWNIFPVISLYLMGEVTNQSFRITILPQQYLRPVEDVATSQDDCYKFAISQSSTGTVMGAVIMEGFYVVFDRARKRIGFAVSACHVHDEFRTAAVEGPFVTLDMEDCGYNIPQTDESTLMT
T10 sequence (P56817 22-457 T293A): as the sequence (P56817 22-457 I171A) above, with A150I, T272A counted along it
T18 sequence (P56817 22-457 S96A): as the sequence (P56817 22-457 I171A) above, with S75A, A150I counted along it
T8 sequence (P56817 22-457 N294A): as the sequence (P56817 22-457 I171A) above, with A150I, N273A counted along it
T11 sequence (P56817 22-457 K168A): as the sequence (P56817 22-457 I171A) above, with K147A, A150I counted along it
T7 sequence (P56817 22-457 Q73A): as the sequence (P56817 22-457 I171A) above, with Q52A, A150I counted along it
T24 sequence (P56817 22-457 G291A): as the sequence (P56817 22-457 I171A) above, with A150I, G270A counted along it
T19 sequence (P56817 22-457 K285A): as the sequence (P56817 22-457 I171A) above, with A150I, K264A counted along it
T23 sequence (P56817 22-457 T292A): as the sequence (P56817 22-457 I171A) above, with A150I, T271A counted along it
T6 sequence (P56817 22-457 D289A): as the sequence (P56817 22-457 I171A) above, with A150I, D268A counted along it
T12 sequence (P56817 22-457 Q134A): as the sequence (P56817 22-457 I171A) above, with Q113A, A150I counted along it
T21 sequence (P56817 22-457 G74A): as the sequence (P56817 22-457 I171A) above, with G53A, A150I counted along it
T22 sequence (P56817 22-457 K382A): as the sequence (P56817 22-457 I171A) above, with A150I, K361A counted along it
T20 sequence (P56817 22-457 I179A): as the sequence (P56817 22-457 I171A) above, with A150I, I158A counted along it
T14 sequence (P56817 22-457 F169A): as the sequence (P56817 22-457 I171A) above, with F148A, A150I counted along it
T1 sequence (P56817 22-457 G72A): as the sequence (P56817 22-457 I171A) above, with G51A, A150I counted along it
T16 sequence (P56817 22-457): as the sequence (P56817 22-457 I171A) above, with A150I counted along it
T15 sequence (P56817 22-457 W176A): as the sequence (P56817 22-457 I171A) above, with A150I, W155A counted along it
T3 sequence (P56817 22-457 R189A): as the sequence (P56817 22-457 I171A) above, with A150I, R168A counted along it
T13 sequence (P56817 22-457 D93A): as the sequence (P56817 22-457 I171A) above, with D72A, A150I counted along it
T2 sequence (P56817 22-457 R296A): as the sequence (P56817 22-457 I171A) above, with A150I, R275A counted along it
T4 sequence (P56817 22-457 T390A): as the sequence (P56817 22-457 I171A) above, with A150I, T369A counted along it
T17 sequence (P56817 22-457 L91A): as the sequence (P56817 22-457 I171A) above, with L70A, A150I counted along it
T9 sequence (P56817 22-457 T133A): as the sequence (P56817 22-457 I171A) above, with T112A, A150I counted along it
T5 sequence (P56817 22-457 Y132A): as the sequence (P56817 22-457 I171A) above, with Y111A, A150I counted along it

Ac-NEESMYCRLLGIGCG-(PEG)3-biotin [Biotinylated BACE020]
Fold Decrease in Binding EC50 (Mut)/EC50 (WT) [1]: 6.5 | Fold Decrease in Binding EC50 (Mut)/EC50 (WT) [2]: 70.9 | Fold Decrease in Binding EC50 (Mut)/EC50 (WT) [3]: 2.7 | Fold Decrease in Binding EC50 (Mut)/EC50 (WT) [4]: 0.9 | Fold Decrease in Binding EC50 (Mut)/EC50 (WT) [5]: 72.2 | Fold Decrease in Binding EC50 (Mut)/EC50 (WT) [6]: 2210.0 | Fold Decrease in Binding EC50 (Mut)/EC50 (WT) [7]: 1.7 | Fold Decrease in Binding EC50 (Mut)/EC50 (WT) [8]: 2.4 | Fold Decrease in Binding EC50 (Mut)/EC50 (WT) [9]: 1.1 | Fold Decrease in Binding EC50 (Mut)/EC50 (WT) [10]: 349.0 | Fold Decrease in Binding EC50 (Mut)/EC50 (WT) [11]: 1.0 | Fold Decrease in Binding EC50 (Mut)/EC50 (WT) [12]: 1990.0 | Fold Decrease in Binding EC50 (Mut)/EC50 (WT) [13]: 568.0 | Fold Decrease in Binding EC50 (Mut)/EC50 (WT) [14]: 1.9 | Fold Decrease in Binding EC50 (Mut)/EC50 (WT) [15]: 690.0 | Fold Decrease in Binding EC50 (Mut)/EC50 (WT) [16]: 1.0 | Fold Decrease in Binding EC50 (Mut)/EC50 (WT) [17]: 1.0 | Fold Decrease in Binding EC50 (Mut)/EC50 (WT) [18]: 1.0 | Fold Decrease in Binding EC50 (Mut)/EC50 (WT) [19]: 4.0 | Fold Decrease in Binding EC50 (Mut)/EC50 (WT) [20]: 2.6 | Fold Decrease in Binding EC50 (Mut)/EC50 (WT) [21]: 488.0 | Fold Decrease in Binding EC50 (Mut)/EC50 (WT) [22]: 4.5 | Fold Decrease in Binding EC50 (Mut)/EC50 (WT) [23]: 73.6 | Fold Decrease in Binding EC50 (Mut)/EC50 (WT) [24]: 0.8 | Fold Decrease in Binding EC50 (Mut)/EC50 (WT) [25]: 1020.0
